Test results reported in patent publication US4352792A, “3-Alkoxyflavone antiviral agents” (priority 1979, dated 1982).
Converted amounts (≈) assume the structure as drawn. Where two headings read alike, the source gives them in different places.

Assays:
[1] = test system: rhinovirus HGP; assay: Inhibition of viral cytopathogenic effect in HeLa cells (rhinovirus HGP); assay type: cell-based; details: Enterovirus, 48 h, read-out: IC50 rhinovirus HGP
[2] = test system: Coxsackie virus B1; assay: Inhibition of viral cytopathogenic effect in HeLa cells (Coxsackie virus B1); assay type: cell-based; details: for IC50: 24 h, read-out: IC50 Coxsackie virus B1
[3] = acute toxicity in mice; details: mouse, in vivo, day 21
[4] = test system: influenzavirus A2/Adachi; assay: Anti-influenzavirus activity in mice; details: up to 21 days; for Survivals: survivors/total
[5] = test system: Coxsackie virus B1; assay: Anti-Coxsackie virus activity, lethal infection in mice
[6] = test system: Coxsackie virus B1
[7] = test system: rhinovirus type 1A; assay: in vitro antiviral spectrum; assay type: cell-based; details: Enterovirus, read-out: Minimum inhibitory concentration
[8] = test system: rhinovirus type 2; assay: in vitro antiviral spectrum; assay type: cell-based; details: Enterovirus, read-out: Minimum inhibitory concentration
[9] = test system: rhinovirus type 3; assay: in vitro antiviral spectrum; assay type: cell-based; details: Enterovirus, read-out: Minimum inhibitory concentration
[10] = test system: rhinovirus type 4; assay: in vitro antiviral spectrum; assay type: cell-based; details: Enterovirus, read-out: Minimum inhibitory concentration
[11] = test system: rhinovirus type 9; assay: in vitro antiviral spectrum; assay type: cell-based; details: Enterovirus, read-out: Minimum inhibitory concentration
[12] = test system: rhinovirus type 13; assay: in vitro antiviral spectrum; assay type: cell-based; details: Enterovirus, read-out: Minimum inhibitory concentration
[13] = test system: rhinovirus type 14; assay: in vitro antiviral spectrum; assay type: cell-based; details: Enterovirus, read-out: Minimum inhibitory concentration
[14] = test system: rhinovirus type 16; assay: in vitro antiviral spectrum; assay type: cell-based; details: Enterovirus, read-out: Minimum inhibitory concentration
[15] = test system: rhinovirus type 17; assay: in vitro antiviral spectrum; assay type: cell-based; details: Enterovirus, read-out: Minimum inhibitory concentration
[16] = test system: rhinovirus type 21; assay: in vitro antiviral spectrum; assay type: cell-based; details: Enterovirus, read-out: Minimum inhibitory concentration
[17] = test system: rhinovirus type 26; assay: in vitro antiviral spectrum; assay type: cell-based; details: Enterovirus, read-out: Minimum inhibitory concentration
[18] = test system: rhinovirus type 30; assay: in vitro antiviral spectrum; assay type: cell-based; details: Enterovirus, read-out: Minimum inhibitory concentration
[19] = test system: rhinovirus type 32; assay: in vitro antiviral spectrum; assay type: cell-based; details: Enterovirus, read-out: Minimum inhibitory concentration
[20] = test system: rhinovirus type 34; assay: in vitro antiviral spectrum; assay type: cell-based; details: Enterovirus, read-out: Minimum inhibitory concentration
[21] = test system: rhinovirus type 36; assay: in vitro antiviral spectrum; assay type: cell-based; details: Enterovirus, read-out: Minimum inhibitory concentration
[22] = test system: rhinovirus type 39; assay: in vitro antiviral spectrum; assay type: cell-based; details: Enterovirus, read-out: Minimum inhibitory concentration
[23] = test system: rhinovirus type 44; assay: in vitro antiviral spectrum; assay type: cell-based; details: Enterovirus, read-out: Minimum inhibitory concentration
[24] = test system: rhinovirus type 47; assay: in vitro antiviral spectrum; assay type: cell-based; details: Enterovirus, read-out: Minimum inhibitory concentration
[25] = test system: rhinovirus type 50; assay: in vitro antiviral spectrum; assay type: cell-based; details: Enterovirus, read-out: Minimum inhibitory concentration
[26] = test system: rhinovirus type 53; assay: in vitro antiviral spectrum; assay type: cell-based; details: Enterovirus, read-out: Minimum inhibitory concentration
[27] = test system: rhinovirus type 55; assay: in vitro antiviral spectrum; assay type: cell-based; details: Enterovirus, read-out: Minimum inhibitory concentration
[28] = 50% inhibition of viral c.p.e., HeLa cells, 2 days at 33° C.
[29] = ip, single dose i.p., dissolved in dimethyl sulfoxide, read-out: LD50 i.p.
[30] = po, single dose p.o., suspended in 0.5% carboxymethylcellulose, read-out: LD50 p.o.
[31] = Mus musculus, ip, 504 h, read-out: Survival
[32] = Mus musculus, po, 504 h, read-out: Survival
[33] = 50% inhibition of viral c.p.e., HeLa cells, 1 day at 37° C.
[34] = Mus musculus, iv, 504 h, read-out: Survival

## COc1cc(OC(C)=O)c2c(=O)c(OC)c(-c3ccc(OC(C)=O)c(OC)c3)oc2c1
[1]; [28]
  IC50: 0.1 to 0.2 µg/mL (≈ 0.233 to 0.467 µM)
[2]; HeLa
  IC50: 0.1 to 0.2 µg/mL (≈ 0.233 to 0.467 µM)
[3]; [29]
  LD50 at 504 h: > 1000 mg/kg
[3]; [30]
  LD50 at 504 h: > 5000 mg/kg
[4]; 20 mg/kg × 9, i.p.
  Survivals: 2/7
  Survivals (%): 29%
[4]; 40 mg/kg × 9, i.p.
  Survivals: 3/8
  Survivals (%): 38%
[5]; 40 mg/kg × 9, p.o., up to 21 days
  Survival: 50%
[5]; [31]
  responders at 10 mg/kg: 54%
  responders at 20 mg/kg: 67%
[5]; [32]
  responders at 20 mg/kg: 20%
  responders at 40 mg/kg: 50%
  responders at 80 mg/kg: 60%
[6]; 10 mg/kg × 9 orally, infection 2.5x LD50, day 21
  Survivors/total: 2/7
[6]; 10 mg/kg × 9 orally, infection 10x LD50, day 21
  Survivors/total: 1/7
[6]; 10 mg/kg × 9 orally, infection 40x LD50, day 21
  Survivors/total: 0/7
[6]; 10 mg/kg × 9 orally, infection 160x LD50, day 21
  Survivors/total: 0/7
[6]; 20 mg/kg × 9 orally, infection 2.5x LD50, day 21
  Survivors/total: 3/7
[6]; 20 mg/kg × 9 orally, infection 10x LD50, day 21
  Survivors/total: 2/7
[6]; 20 mg/kg × 9 orally, infection 40x LD50, day 21
  Survivors/total: 1/7
[6]; 20 mg/kg × 9 orally, infection 160x LD50, day 21
  Survivors/total: 1/7
[6]; 40 mg/kg × 9 orally, infection 2.5x LD50, day 21
  Survivors/total: 4/7
[6]; 40 mg/kg × 9 orally, infection 10x LD50, day 21
  Survivors/total: 3/7
[6]; 40 mg/kg × 9 orally, infection 40x LD50, day 21
  Survivors/total: 2/7
[6]; 40 mg/kg × 9 orally, infection 160x LD50, day 21
  Survivors/total: 2/7

## COc1cc(O)c2c(=O)c(OC)c(-c3ccc(OC)c(O)c3)oc2c1 [3',5-dihydroxy-3,4',7-trimethoxyflavone]
[1]; [28]
  IC50: 3 µg/mL (≈ 8.71 µM)
[2]; [33]
  IC50: 3 to 10 µg/mL (≈ 8.71 to 29 µM)

## COc1cc(OC(=O)c2cccnc2)c2c(=O)c(OC)c(-c3ccc(OC(=O)c4cccnc4)c(OC)c3)oc2c1 [3,3',7-trimethoxy-4',5-bis-(nicotinoyloxy)-flavone]
[1]; [28]
  IC50: 0.3 to 1 µg/mL (≈ 0.541 to 1.8 µM)
[2]; [33]
  IC50: 0.3 to 1 µg/mL (≈ 0.541 to 1.8 µM)
[5]; [32]
  responders at 10 mg/kg: 40%
  responders at 20 mg/kg: 30%

## CCC(=O)Oc1ccc(-c2oc3cc(OC)cc(OC(=O)CC)c3c(=O)c2OC)cc1OC [3,3',7-trimethoxy-4',5-bis-(propionyloxy)-flavone]
[1]; [28]
  IC50: 0.1 to 0.2 µg/mL (≈ 0.219 to 0.438 µM)
[2]; [33]
  IC50: 0.1 to 1.2 µg/mL (≈ 0.219 to 2.63 µM)

## CCOc1c(-c2ccc(O)c(OC)c2)oc2cc(OC)cc(O)c2c1=O [3-ethoxy-4',5-dihydroxy-3',7-dimethoxyflavone]
[1]; [28]
  IC50: 0.05 to 0.1 µg/mL (≈ 0.14 to 0.279 µM)
[2]; [33]
  IC50: 0.05 to 0.1 µg/mL (≈ 0.14 to 0.279 µM)

## CCOC(=O)Oc1ccc(-c2oc3cc(OC)cc(OC(=O)OCC)c3c(=O)c2OC)cc1OC [4',5-bis-(ethoxycarbonyloxy)-3,3',7-trimethoxyflavone]
[1]; [28]
  IC50: 0.3 to 1 µg/mL (≈ 0.614 to 2.05 µM)
[2]; [33]
  IC50: 0.3 to 1 µg/mL (≈ 0.614 to 2.05 µM)
[5]; [32]
  responders at 10 mg/kg: 30%
  responders at 20 mg/kg: 30%

## COc1cc(O)c2c(=O)c(OC)c(-c3ccc(O)cc3OC)oc2c1 [4',5-dihydroxy-2,',3,7-trimethoxyflavone, 4',5-dihydroxy-2',3,7-trimethoxyflavone]
[1]; [28]
  IC50: 0.3 µg/mL (≈ 0.871 µM)
[2]; [33]
  IC50: 1 to 3 µg/mL (≈ 2.9 to 8.71 µM)

## COc1cc(O)c2c(=O)c(OC)c(-c3ccc(O)cc3)oc2c1 [4',5-dihydroxy-3,7-dimethoxyflavone]
[1]; HeLa
  IC50: 0.1 µg/mL (≈ 0.318 µM)
[2]; HeLa
  IC50: 0.1 µg/mL (≈ 0.318 µM)
[2]; read-out: Minimum inhibitory concentration
  MIC: 0.1 µg/mL (≈ 0.318 µM)
[7]
  MIC: 0.03 µg/mL (≈ 0.0955 µM)
[8]
  MIC: 0.1 µg/mL (≈ 0.318 µM)
[9]
  MIC: 0.3 µg/mL (≈ 0.955 µM)
[10]
  MIC: 0.3 to 1 µg/mL (≈ 0.955 to 3.18 µM)
[11]
  MIC: 0.3 µg/mL (≈ 0.955 µM)
[12]
  MIC: 0.3 to 1 µg/mL (≈ 0.955 to 3.18 µM)
[13]
  MIC: 0.3 µg/mL (≈ 0.955 µM)
[14]
  MIC: 0.3 to 1 µg/mL (≈ 0.955 to 3.18 µM)
[15]
  MIC: 0.1 µg/mL (≈ 0.318 µM)
[16]
  MIC: 0.3 µg/mL (≈ 0.955 µM)
[17]
  MIC: 0.3 µg/mL (≈ 0.955 µM)
[18]
  MIC: 0.1 µg/mL (≈ 0.318 µM)
[19]
  MIC: 0.3 µg/mL (≈ 0.955 µM)
[20]
  MIC: 0.3 µg/mL (≈ 0.955 µM)
[21]
  MIC: 0.3 µg/mL (≈ 0.955 µM)
[22]
  MIC: 0.3 µg/mL (≈ 0.955 µM)
[23]
  MIC: 0.5 µg/mL (≈ 1.59 µM)
[24]
  MIC: 0.3 µg/mL (≈ 0.955 µM)
[25]
  MIC: 0.3 µg/mL (≈ 0.955 µM)
[26]
  MIC: 0.3 µg/mL (≈ 0.955 µM)
[27]
  MIC: 0.1 to 0.3 µg/mL (≈ 0.318 to 0.955 µM)

## COc1cc(O)c2c(=O)c(OC(C)C)c(-c3ccc(O)c(OC)c3)oc2c1 [4',5-dihydroxy-3-isopropoxy-3',7-dimethoxyflavone]
[1]; [28]
  IC50: 0.05 to 0.1 µg/mL (≈ 0.134 to 0.269 µM)
[2]; [33]
  IC50: 0.05 to 0.1 µg/mL (≈ 0.134 to 0.269 µM)

## COc1cc(O)c2c(=O)c(OC)c(-c3ccc(OC(=O)C(O)C(O)C(=O)O)c(OC)c3)oc2c1 (centres unmarked) [4'-(3-carboxy-2,3-dihydroxypropionyloxy)-5-hydroxy-3,3',7-trimethoxyflavone]
[1]; [28]
  IC50: 0.1 to 0.2 µg/mL (≈ 0.21 to 0.42 µM)
[2]; [33]
  IC50: 0.1 to 0.2 µg/mL (≈ 0.21 to 0.42 µM)

## COc1cc(O)c2c(=O)c(OC)c(-c3ccc(OC(=O)[C@H](C)N)c(OC)c3)oc2c1 [4'-(L-alanyloxy)-5-hydroxy-3,3',7-trimethoxyflavone]
[1]; [28]
  IC50: 0.5 µg/mL (≈ 1.2 µM)
[2]; HeLa
  IC50: 0.25 to 0.5 µg/mL (≈ 0.602 to 1.2 µM)
[3]; [29]
  LD50 at 504 h: > 1000 mg/kg
[3]; [30]
  LD50 at 504 h: > 5000 mg/kg
[5]; [34]
  responders at 10 mg/kg: 42%

## COc1cc(O)c2c(=O)c(OC)c(-c3ccc(OC(=O)[C@@H](N)CCC(N)=O)c(OC)c3)oc2c1 [4'-(L-glutaminyloxy)-5-hydroxy-3,3',7-trimethoxyflavone]
[1]; [28]
  IC50: 0.25 to 0.5 µg/mL (≈ 0.529 to 1.06 µM)
[2]; HeLa
  IC50: 0.25 to 0.5 µg/mL (≈ 0.529 to 1.06 µM)
[3]; [29]
  LD50 at 504 h: > 1000 mg/kg
[3]; [30]
  LD50 at 504 h: > 5000 mg/kg
[5]; [34]
  responders at 10 mg/kg: 54%
